Entries after “also recorded” stand apart in the source; their conditions may differ. Marks after values point to notes of the source that are not given here.
System: intestinal adenomas in Min mice (Apc^min/Apc^+)
Experiment: Intestinal tumorigenesis in Min mice fed treatment diets for 10 weeks (adenoma number and size)
Assay type: in vivo
Details: for Adenoma numbers in the small intestine, Distal / Adenoma numbers in the small intestine, Middle / Adenoma numbers in the small intestine, Proximal / Total Adenoma Diameter in the small intestine / Adenoma numbers in the small intestine, Total: 800 ppm anthocyanins; for Adenoma numbers in the small intestine, Distal / Adenoma numbers in the small intestine, Middle / Adenoma numbers in the small intestine, Proximal / Total Adenoma Diameter in the small intestine: 200 ppm cyanidin or 200 ppm sulindac in drinking water, or 20% cherries diet; for Adenoma numbers in the small intestine, Distal / Adenoma numbers in the small intestine, Middle / Adenoma numbers in the small intestine, Proximal / Total Adenoma Diameter in the small intestine / Adenoma numbers in the small intestine, Total / Colon Total adenoma Volume / Cecal Total adenoma Volume / Cecum adenoma Number / Colon adenoma Number / Mean Adenoma Diameter in the small intestine / Average number of solid tumors, Cecum / Average number of solid tumors, Colon / Average number of solid tumors, Total (cecum and colon): mean ± SEM; for Adenoma numbers in the small intestine, Total: 200 ppm cyanidin or 200 ppm sulindac in drinking water, or 20% freeze-dried cherries in diet; for Colon Total adenoma Volume / Cecal Total adenoma Volume / Cecum adenoma Number / Colon adenoma Number / Mean Adenoma Diameter in the small intestine / Average number of solid tumors, Cecum / Average number of solid tumors, Colon / Average number of solid tumors, Total (cecum and colon): same treatments; for Cecal Total adenoma Volume / Cecum adenoma Number / Colon adenoma Number / Mean Adenoma Diameter in the small intestine: different superscripts = significant differences (P < 0.05); for Average number of solid tumors, Cecum / Average number of solid tumors, Colon / Average number of solid tumors, Total (cecum and colon): three-dimensional raised tumors
Excerpt: Forty-eight Min mice were randomly assigned to five treatment groups at 4-5 weeks of age and fed treatment diets for 10 weeks. The treatments were:
1) Modified AIN-93G control diet, 2) The control diet +800 ppm anthocyanins in drinking water, 3) The control diet+200 ppm cyanidin in drinking water, 4) The control diet+200 ppm sulindac in drinking water, 5) Modified control diet containing 20% freeze dried pitted tart cherries. Only mean diameter, not the number of adenomas in the small intestine was reduced by sulindac, whereas diameter was increased by cherry diet (p<0.05).
All research was conducted with approval of the Michigan State University, East Lansing, Mich., All-University Committee on animal use and care. Mice were housed in MSU Laboratory, Animal Resources maintained facilities. A colony of Min mice was maintained by crossing male Min mice (Apc^min/Apc^+) with normal adult C57BL/6J female mice. Mice were housed in a temperature and humidity-controlled room (20-22° C., 70%) with a 12-h light/dark cycle. At three weeks of age, mice were bled from the dorsal pedal vein (30 μL) for genotyping analysis to identify Apc^min/Apc^+ using polymerase chain reaction (PCR) analysis and subsequent gel electrophoresis analysis. Forty-eight Min mice identified were randomly assigned to five treatment groups (7 to 11 per treatment) at 4 or 5 weeks of age and fed treatment diets for 10 weeks. The treatments were:
1) Modified AIN-93G control diet and 50 ppm ascorbic acid in drinking water (n=11)
2) The control diet+50 ppm ascorbic acid and 800 ppm anthocyanins in drinking water (n=9)
3) The control diet+50 ppm ascorbic acid and 200 ppm cyanidin in drinking water (n=7)
4) The control diet+50 ppm ascorbic acid and 200 ppm sulindac in drinking water (n=10)
5) 20% freeze-dried cherries+50 ppm ascorbic acid in drinking water (n=11).
Ingredient composition of diets is in Table 1. All diets contained 22% protein, 15% fat (soybean oil) and 5% cellulose contents. Distilled water was used for drinking water. Ascorbic acid was added to provide low pH for keeping anthocyanins and cyanidin in solution since they are stable only under pH 7. The concentration of sulindac (200 ppm) was based on the effective range found from most studies that have shown sulindac to reduce intestinal neoplasia. Cyanidin concentration (200 ppm) was matched to that of sulindac. Anthocyanins was tested at the level four times the cyanidin concentration because anthocyanins are the glycosylated cyanidin and the level (800 ppm) has equivalent amount of flavylium cation. Red tart pitted cherries (Peerson Farms, Inc., Shelby, Mich.) were frozen, freeze-dried, ground using plate grinder, and then screened to pass a 1 mm screen before they were incorporated into the diet at the expense of sucrose, cornstarch and dyetrose. One hundred grams of the experimental diet included 23 g of ground cherries to make 20% of cherries in the diet because dry matter of cherries was 75%, whereas that of AIN-93G diet was 91%.
Body weight was measured once a week until mice were sacrificed at the end of treatment period. Upon sacrifice by carbon dioxide asphyxiation, the liver was removed and frozen immediately for confirmatory PCR analysis. The entire small intestine, cecum, and colon were removed from each mouse to determine the number and size of adenomas. The tissues were separated into the following sections: proximal one-third of small intestine, middle one-third of small intestine, distal one-third of small intestine, cecum, and colon. All intestinal sections were opened longitudinally, rinsed thoroughly with water, fixed overnight in 10% neutral-buffered formalin, and then stained with 0.2% methylene blue. Tumor number and size (diameter for flat tumors or volume in the case of three-dimensional tumors) were determined in each intestinal segment on 1 mm grid transparency by direct counting with the aid of a dissecting microscope. […]

Compound	Adenoma numbers in the small intestine, Distal	Adenoma numbers in the small intestine, Middle	Adenoma numbers in the small intestine, Proximal	Total Adenoma Diameter in the small intestine	Adenoma numbers in the small intestine, Total	Colon Total adenoma Volume	Cecal Total adenoma Volume	Cecum adenoma Number	Colon adenoma Number	Mean Adenoma Diameter in the small intestine	Average number of solid tumors, Cecum	Average number of solid tumors, Colon	Average number of solid tumors, Total (cecum and colon)	Intestinal site of inhibited tumorigenesis (conclusion in words)	Number of cecal adenomas compared to controls (in words)	Size (volume) of adenomas in the cecum (in words)	Trend in number of adenoma in the proximal section of the small intestine (in words) (P=0.05)	Number of colonic adenomas (in words) (p<0.05)	Mean diameter (size) of adenoma in the small intestine, effect compared to control diet (in words) (p<0.05, listed as sulindac)	Number of colonic adenomas (in words) (p<0.05, listed as sulindac)
Oc1cc(O)c2cc(O)c(-c3ccc(O)c(O)c3)[o+]c2c1 [Cyanidin]	20.0 ± 7.8	15.7 ± 5.8	15.6 ± 3.5	67.4 ± 22.0 mm	51.3 ± 15.8	3.51 ± 2.24 mm^3	0.56 ± 0.96^b mm^3	0.57 ± 0.63^b	3.71 ± 0.80^ab	1.25 ± 0.11^b mm	0.00 ± 0.13	0.14 ± 0.21	0.14 ± 0.25							
CC1=C(CC(=O)O)c2cc(F)ccc2/C1=C\c1ccc([S+](C)[O-])cc1 (stereo not drawn) [Sulindac, sulindac]	10.0 ± 6.5	9.1 ± 4.9	5.6 ± 2.9	23.5 ± 18.4 mm	24.7 ± 13.2	3.35 ± 1.88 mm^3	4.00 ± 0.81^a mm^3	4.00 ± 0.53^c	5.30 ± 0.67^b	0.93 ± 0.10^a mm	0.20 ± 0.11	0.20 ± 0.17	0.40 ± 0.21	inhibits small intestinal tumorigenesis	significantly more cecal adenomas than controls; also recorded: significantly higher number of cecal adenomas; also recorded: increased the number of adenomas in cecum and colon	increased	reduced	twice as many adenomas as those of mice in cherry diet	significantly reduced the size of adenomas in small intestine	greatest number of colonic adenomas; also recorded: increased the number of adenomas in cecum and colon
